Assay results: patent publication US8722731B2, “Furanyl compounds and the use thereof” (NovoMedix, LLC, priority 2010, dated 2014)

Tests used:
Panc-1 = experiment: IC50 cell-based assay, adherent cells, Panc-1; conditions: Homo sapiens, Pancreas, epitheloid carcinoma, 72 hours, read-out: IC50 of Compounds in Adherent Cell Types
Protocol: (§1) In one embodiment, the IC50s of the compounds provided herein were determined in cell-based assays using adherent cells. In one embodiment, the activity of the compounds provided herein were determined in a cell-based assay using the triple negative breast cancer cell line MDA-MB-468. In one embodiment, the adherent cells used in the cell-based assays may be a cell type selected from Table 1. In one embodiment, the cell-based assay may be carried out as provided herein. On day 0, cells were seeded at 20,000 cells per well in 100 µL of media into individual wells of a 96-well tissue culture plate. The next day, compounds were diluted to twice the desired final concentration and added in 100 µL of media for a final volume of 200 μL. Standard solutions for each compound were prepared at 1000× concentration in DMSO. The highest concentration was 30 mM. Serial 1:1 dilutions were made from there for a 6- or 9-point curve (e.g., 30 mM, 15 mM, 7.5 mM, etc). Compounds were then diluted 1:500 in media, and 100 µL of the resulting solution was added to each well for a final dilution of 1:1000. Each concentration of compound was tested in triplicate. Cells were incubated at 37° C. with 5% CO2. After 72 hours, 20 μL of CellTiter 96 Aqueous One Solution Cell Proliferation Assay (Promega) was added to each well. Cells were placed back in the incubator, and the absorbance at 490 nm was read after 2-3 hours. The concentration of compound that decreased the number of metabolically active cells by 50% was determined and reported as the IC50. “Percent Viability” was determined by subtracting the average background value (media only) and expressed as a ratio to the average value obtained from cells treated with only DMSO.

H-460 = experiment: IC50 cell-based assay, adherent cells, H-460; conditions: Homo sapiens, NCI-H460, Lung, large cell carcinoma, 72 hours, read-out: IC50 of Compounds in Adherent Cell Types
Protocol: as §1

Z138, JeKo-1 = experiment: IC50 cell-based assay, suspension cells, Z138, JeKo-1; conditions: Lymphoma, Mantle cell, read-out: IC50 of Compounds in Suspension Cell Types
Protocol: as §1
In one embodiment, the IC50s of the compounds provided herein were determined in cell-based assays using suspension cells. In one embodiment, the activity of the compounds provided herein were determined in a cell-based assay using the JeKo-1 cell line (mantle cell lymphoma) or the Pfeiffer cell line (diffuse large B-cell lymphoma). In one embodiment, the suspension cells used in the cell-based assays may be a cell type selected from Table 2. Assays with suspension cells were similar except that 40,000-60,000 cells were added to each well and compounds were added immediately after cell plating.

[1] = Percent weight change of animals in MDA-MB-468 xenograft study; format: in vivo, Mouse/SCID; conditions: qd 20 mg/kg days 0 to 7, then qd 10 mg/kg day 8 and thereafter, IP, SCID mice
Protocol: (§2) In one embodiment, the effects of a compound provided herein on tumor growth in a mouse animal model were evaluated. In specific embodiments, the mouse animal model was the MDA-MB-468 xenograft model for breast cancer. Studies were performed to evaluate the effect of a compound provided herein on the growth of MDA-MB-468 breast tumors in mice. The test system that was used is summarized below:
(§3) Exemplary Protocol: Ten mice per group were inoculated s.c. on the left flank with 5×10^6 MDA-MB-468 cells. When tumors reached a mean volume of 100 or 200 mm^3, animals began treatment with a compound provided herein (See Table 4). Test article or vehicle were given once daily by IP injection for up to 21 days. Tumors were evaluated every Monday, Wednesday and Friday, body weights and condition were evaluated on a daily basis.
Animal Weight: All animals were weighed […] throughout the study. Group weight change was expressed as a daily group mean weight. Animals that lost greater than 20% of their total starting body weight were euthanized.
(§4) Compound 1 was dosed in mice at a dose of, for example, qd 50 mg/kg, for 22 days or more.
(§5) Compound 2 was dosed in mice at a dose of, for example, qd 20 mg/kg from day 0 to 7, then qd 10 mg/kg from day 8 and thereafter, for 22 days or more.

MDA-MB-468 breast tumors = experiment: Tumor growth inhibition in MDA-MB-468 mouse xenograft model for breast cancer (tumor volume); format: in vivo; conditions: qd 20 mg/kg days 0 to 7, then qd 10 mg/kg day 8 and thereafter, IP, SCID mice
Protocol: as §2, §3
Cell Culture: MDA-MB-468 breast cancer cells were grown in Liebowitz's L-15 with 10% fetal bovine serum and 1% pen/strep. Cells were routinely trypsinized and passaged 1:4. On the day of implantation, cells were washed in PBS, trypsinized and resuspended in complete media. Cells were washed 3× in serum free media (centrifuged 1000 rpm for 5 min). Cells were resuspended to a density of 1×10^8 cells/mL and diluted 1:1 with Matrigel. Cells were implanted s.c. using a 23 G needle in a volume of 0.1 mL.
Tumor Measurement: Tumors were monitored daily. If, during a daily evaluation, an animal's tumor appeared to have exceeded 1500 mm^3, the tumor was measured; and animals with tumors greater than 1500 mm^3 and/or that had become necrotic and/or hindered movement were euthanized. Tumors were measured twice weekly by measuring each tumor in 2 dimensions, along the largest dimension (length, L) and perpendicular to this dimension (width, W). Tumor weights were calculated using the standard formula: (L×W^2)/2. The mean tumor weight and standard error of the mean were calculated for each group at each time point. An ANOVA was used to compare differences of primary tumor volume.
as §4, §5

A549 = experiment: IC50 cell-based assay, adherent cells, A549; conditions: Homo sapiens, Lung, NSCLC, 72 hours, read-out: IC50 of Compounds in Adherent Cell Types
Protocol: as §1

OVCAR-3 = experiment: IC50 cell-based assay, adherent cells, OVCAR-3; conditions: Homo sapiens, Ovarian, adenocarcinoma, 72 hours, read-out: IC50 of Compounds in Adherent Cell Types
Protocol: as §1

IC50 (Panc-1): 5 to 10 µM
IC50 (H-460): > 20 µM
IC50 (Z138, JeKo-1): < 5 µM
Percent Weight Change of Control and Treated Animals, mean ([1]; Day 1): 0.00%
Percent Weight Change of Control and Treated Animals, mean ([1]; Day 2): −1.11%
Percent Weight Change of Control and Treated Animals, mean ([1]; Day 3): −2.65%
Percent Weight Change of Control and Treated Animals, mean ([1]; Day 4): −3.35%
Percent Weight Change of Control and Treated Animals, mean ([1]; Day 5): −3.84%
Percent Weight Change of Control and Treated Animals, mean ([1]; Day 6): −1.98%
Percent Weight Change of Control and Treated Animals, mean ([1]; Day 7): −3.25%
Percent Weight Change of Control and Treated Animals, mean ([1]; Day 8): −5.29%
Percent Weight Change of Control and Treated Animals, mean ([1]; Day 9): −3.91%
Percent Weight Change of Control and Treated Animals, mean ([1]; Day 10): −6.29%
Percent Weight Change of Control and Treated Animals, mean ([1]; Day 11): −3.98%
Percent Weight Change of Control and Treated Animals, mean ([1]; Day 12): −1.48%
Percent Weight Change of Control and Treated Animals, mean ([1]; Day 13): −1.39%
Percent Weight Change of Control and Treated Animals, mean ([1]; Day 14): −2.75%
Percent Weight Change of Control and Treated Animals, mean ([1]; Day 15): −0.49%
Percent Weight Change of Control and Treated Animals, mean ([1]; Day 16): −1.04%
Percent Weight Change of Control and Treated Animals, mean ([1]; Day 17): −0.16%
Percent Weight Change of Control and Treated Animals, mean ([1]; Day 18): 0.96%
Percent Weight Change of Control and Treated Animals, mean ([1]; Day 19): −0.20%
Percent Weight Change of Control and Treated Animals, mean ([1]; Day 20): −1.98%
Percent Weight Change of Control and Treated Animals, mean ([1]; Day 21): −0.19%
Percent Weight Change of Control and Treated Animals, mean ([1]; Day 22): −0.65%
IC50 (A549): 5 to 10 µM
IC50 (OVCAR-3): 5 to 10 µM
SMILES: O=C(Nc1cc(C(F)(F)F)cc(C(F)(F)F)c1)c1cc(-c2ccc(Cl)cc2)oc1C(F)(F)F [Compound 2, 5-(4-Chlorophenyl)-N-(3,5-bistrifluoromethylphenyl)-2-trifluoromethylfuran-3-carboxamide]
Tumor Volumes in Control and Treated Animals, mean (MDA-MB-468 breast tumors; Day 1): 119.09 mm^3
Tumor Volumes in Control and Treated Animals, mean (MDA-MB-468 breast tumors; Day 3): 103.39 mm^3
Tumor Volumes in Control and Treated Animals, mean (MDA-MB-468 breast tumors; Day 5): 119.30 mm^3
Tumor Volumes in Control and Treated Animals, mean (MDA-MB-468 breast tumors; Day 8): 139.19 mm^3
Tumor Volumes in Control and Treated Animals, mean (MDA-MB-468 breast tumors; Day 10): 181.97 mm^3
Tumor Volumes in Control and Treated Animals, mean (MDA-MB-468 breast tumors; Day 12): 234.51 mm^3
Tumor Volumes in Control and Treated Animals, mean (MDA-MB-468 breast tumors; Day 15): 276.34 mm^3
Tumor Volumes in Control and Treated Animals, mean (MDA-MB-468 breast tumors; Day 17): 311.15 mm^3
Tumor Volumes in Control and Treated Animals, mean (MDA-MB-468 breast tumors; Day 19): 318.18 mm^3
Tumor Volumes in Control and Treated Animals, mean (MDA-MB-468 breast tumors; Day 22): 356.43 mm^3
